Test results reported in patent US20060204502A1 (priority 2004, published 2006).
Read-outs that look alike come from different tables or passages of the source.

Columns and labels:
[1] = system: Human Pancreatic Cancer Panc-1; experiment: MTT growth inhibitory assay, Panc-1; format: cell-based; details: Panc-1 cells, A3 antagonist at 1 μg/ml
Experimental: (§1) Interpretation of the EF is dependent upon the concentrations of A3 receptor antagonist tested. For example, when using very low concentrations of A3 receptor antagonist, any EF above 1.0 is synergistic if the A3 receptor antagonist concentration is below the threshold of cell growth inhibition.
(§2) The cells are sub-cultured twice a week.
(§3) Vinblastine sulfate salt was obtained from Sigma Chemical Co., (V1377). Irinotecan was diluted with culture medium. All other agents were dissolved in 100% DMSO at appropriate concentrations. The DMSO stock solutions were diluted 100-fold with growth medium so that the final DMSO concentration was 1%.

A375 cells = experiment: Colony formation assay of A375 cells; format: cell-based, human; details: 10 μM combined with paclitaxel (0.75 μg/ml), 7 days
Experimental: FIG. 2 illustrates colony formation assay of A375 cells. Cells were treated with different drugs and colonies were counted after 7 days. The values represent the mean±SEM of four independent experiments. […] Analysis was by ANOVA followed by Dunnett's test.
Control plates received the same volume of DMSO alone. After 7 days of growth at 37° C. in humidified atmosphere containing 5% CO2, the cells were fixed with absolute methanol for 5′ and stained with 1/10 Giemsa/phosphate-buffered saline (PBS) staining solution for 10 minutes. Staining solution was removed and colonies of greater than 30 cells were scored as survivors. For each treatment, six individual wells were scored.

[2] = system: Human Lung Carcinoma SKMES; experiment: MTT growth inhibitory assay, SKMES; format: cell-based; details: SKMES cells, A3 antagonist at 1 μg/ml
Experimental: as §1, §2, §3

P-gp = P-gp (Homo sapiens, UniProt P08183); format: cell-based; details: 10 μM; for P-gp mediated Rh123 efflux (FRES vs FMAX): 3 hours efflux
Sequence of P-gp (P08183 whole entry): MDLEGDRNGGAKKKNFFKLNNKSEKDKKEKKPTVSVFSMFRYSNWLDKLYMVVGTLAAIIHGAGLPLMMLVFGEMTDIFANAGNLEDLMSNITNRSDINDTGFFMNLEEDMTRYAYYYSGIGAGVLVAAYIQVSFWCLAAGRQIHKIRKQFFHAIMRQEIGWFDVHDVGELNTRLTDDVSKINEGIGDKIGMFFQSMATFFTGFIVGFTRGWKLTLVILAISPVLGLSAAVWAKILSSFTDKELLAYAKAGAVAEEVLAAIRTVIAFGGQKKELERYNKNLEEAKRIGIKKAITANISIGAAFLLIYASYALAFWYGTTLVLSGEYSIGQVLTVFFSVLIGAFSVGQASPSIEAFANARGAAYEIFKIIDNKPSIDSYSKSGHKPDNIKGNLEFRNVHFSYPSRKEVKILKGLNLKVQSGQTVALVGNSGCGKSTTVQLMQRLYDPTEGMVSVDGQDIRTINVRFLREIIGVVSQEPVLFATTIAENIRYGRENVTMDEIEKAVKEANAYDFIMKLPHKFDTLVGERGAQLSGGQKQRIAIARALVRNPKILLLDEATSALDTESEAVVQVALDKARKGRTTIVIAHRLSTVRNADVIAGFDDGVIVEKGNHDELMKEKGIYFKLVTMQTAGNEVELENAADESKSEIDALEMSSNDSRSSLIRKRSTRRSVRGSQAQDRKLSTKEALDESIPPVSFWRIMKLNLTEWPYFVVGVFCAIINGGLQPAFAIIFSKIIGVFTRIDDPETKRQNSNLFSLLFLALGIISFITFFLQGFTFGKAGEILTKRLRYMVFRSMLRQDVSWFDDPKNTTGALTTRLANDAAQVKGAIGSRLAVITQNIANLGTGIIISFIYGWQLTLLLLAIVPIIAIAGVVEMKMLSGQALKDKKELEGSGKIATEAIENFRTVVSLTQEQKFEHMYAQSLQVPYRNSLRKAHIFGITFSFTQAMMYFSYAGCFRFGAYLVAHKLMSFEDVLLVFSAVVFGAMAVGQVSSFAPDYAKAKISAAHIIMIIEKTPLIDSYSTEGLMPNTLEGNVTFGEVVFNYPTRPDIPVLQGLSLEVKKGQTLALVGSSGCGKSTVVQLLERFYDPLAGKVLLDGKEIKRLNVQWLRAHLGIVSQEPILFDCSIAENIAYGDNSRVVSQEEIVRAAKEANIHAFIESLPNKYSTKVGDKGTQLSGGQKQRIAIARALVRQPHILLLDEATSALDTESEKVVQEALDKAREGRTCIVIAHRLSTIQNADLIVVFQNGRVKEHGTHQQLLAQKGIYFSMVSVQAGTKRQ
Experimental: Rhodamine 123 Efflux Assay: 5×10^5 cells from each subline were loaded with 50 ng/ml of rhodamine 123 for 30 minutes at 37 C in medium. The cells were washed and resuspended in dye-staining agent free medium for 3 hours at 37 C. to allow rhodamine 123 efflux. The cells were then washed twice and the fluorescence of intracellular rhodamine 123 were analysed with Flow cytometer (residual fluorescence FRES). The fluorescence was compared with loaded cells maintained at 4 C. to prevent drug export (maximal fluorescence FMAX). […] Cells from each subline that were not being exposed to rhodamine 123 were used as negative controls.
Rhodamine 123 (Rh123) retention, a P-gp functional assay, was studied in all cell lines. This assay was performed by incubating cells with Rh123 and determining Rh123 accumulation by measuring its fluorescence. The maximum load of Rh123 (FMAX) was quantified at the end of treatment harvesting the cells and storing them at 4° C. to prevent any active Rh123 efflux. The P-gp drug efflux was allowed incubating Rh123-loaded cells in fresh new medium Rh123-free for 3 hours at 37° C. After this incubation, residual fluorescence (FRES) was measured and compared to FMAX.

[3] = system: Human Colon Carcinoma HT29; experiment: MTT growth inhibitory assay, HT29; format: cell-based; details: HT29 cells, A3 antagonist at 1 μg/ml
Experimental: as §1, §2, §3

HIF-1α = HIF-1α protein immunoblot in hypoxic cells; format: cell-based, human; details: A375
Experimental: Cell culture and hypoxia treatment: Cells were maintained in DMEM (A375), EMEM (NCTC 2544) or RPMI 1640 (U87MG, U2OS) medium containing 10% fetal calf serum, penicillin (100 U/ml), streptomycin (100 ug/ml), and L-glutamine (2 mM) at 37° C. in 5% CO2/95% air. Cells were passaged two or three times weekly at a ratio between 1:5 and 1:10. Hypoxic exposure was in BBL™ GasPak pouch™ System (Becton Dickinson) that reduce oxygen concentration of less than 2% within 2 hours of incubation at 35° C.
Cells were harvested and washed with ice-cold PBS containing 1 mM sodium orthovanadate, AEBSF 104 mM, aprotinin 0.08 mM, leupeptin 2 mM, bestatin 4 mM, pepstatin A 1.5 mM, E-64 1.4 mM. Cells were then lysed in Triton lysis buffer. The protein concentration was determined using BCA protein assay kit (Pierce). […] The gel was then electroblotted onto a nitrocellulose membrane. Membranes were blocked with 5% nonfat dry milk in PBS containing 0.1% Tween-20 and incubated with antibodies against HIF-1α (1:250 dilution) and HIF-1β (1:1000 dilution) in 5% nonfat dry milk in PBS/0.1% Tween-20 overnight at 4° C. Aliquots of total protein sample (50 ug) were analyzed using antibodies specific for phosphorylated (Thr183/Tyr185) or total p44/p42 MAPK (1:5000 dilution), phosphorylated (Thr180/Tyr182) or total p38 MAPK (1:1000 dilution) and for A3 receptor (1 µg/ml dilution). Filters were washed and incubated for 1 hour at room temperature with peroxidase-conjugated secondary antibodies against mouse and rabbit IgG (1:2000 dilution). […] The membranes were then stripped and reprobed with tubulin (1:250) to ensure equal protein loading.
U0126 was used at 10 and 30 uM as inhibitor of MEK-1 and MEK-2 to prevent p44 and p42 MAPK activation. SB202190 was used at 1 and 10 uM as inhibitor of p38 MAPK.
Densitometry analysis: The intensity of each band in immunoblot assay was quantified using molecular analyst/PC densitometry software (Bio-Rad). […] The data were presented as the mean±S.E., and analyzed by the Student's test.

Compound: CCCn1cc2c(nc(NC(=O)Nc3ccc(OC)cc3)n3nc(-c4ccco4)nc23)n1 [MRE3008F20, 5-[[(4-Methoxyphenyl)amino]carbonyl]amino-8-propyl-2-(2-furyl)-pyrazolo[4,3-e]1,2,4-triazolo[1,5-c]pyrimidine]
- Enhancement Factor ([1]; enhancement of docetaxel IC50): 1.8
- Enhancement Factor ([1]; enhancement of paclitaxel IC50): 1.9
- colony formation, % of DMSO control (A375 cells): 0.2%
- Enhancement Factor ([2]; enhancement of docetaxel IC50): 3.6
- Enhancement Factor ([2]; enhancement of irinotecan HCL IC50): 2.1
- Enhancement Factor ([2]; enhancement of paclitaxel IC50): 4.1
- Enhancement Factor ([2]; enhancement of vinblastine IC50): 1.2
- P-gp mediated Rh123 efflux (FRES vs FMAX) (P-gp; A375 cells): completely blockade of P-gp mediated Rh123 transport
- % of Rh123 Negative Cells (cells expressing P-gp activity) (P-gp; HeL023 cells): 0.5 ± 0.3%
- P-gp mediated Rh123 efflux (FRES vs FMAX) (P-gp; HeL023 cells): near total P-gp inhibition
- Enhancement Factor ([3]; enhancement of docetaxel IC50): 15.0
- Enhancement Factor ([3]; enhancement of doxorubicin IC50): 1.6
- Enhancement Factor ([3]; enhancement of irinotecan IC50): 1.8
- Enhancement Factor ([3]; enhancement of paclitaxel IC50): 2.9
- effect on adenosine-induced HIF-1α protein expression (HIF-1α; hypoxia 4 hours, adenosine 100 μM, antagonist 100 nM): abrogated
- effect on Cl-IB-MECA-induced HIF-1α modulation (HIF-1α; hypoxia, antagonist 10 and 100 nM, Cl-IB-MECA 10 and 100 nM): able to abrogate the effect of Cl-IB-MECA
- IC50 (HIF-1α; Homo sapiens, A-375, read-out: IC50, inhibition of HIF-1α protein increase induced by 10 nM Cl-IB-MECA, hypoxia 4 hours, 0.3-30 nM): 0.9 ± 0.08 nM
